In brackets after ≈: the same amount, converted by molar mass. Where two headings read alike, the source gives them in different places. Values belong to the molecule of their own block, whether it stands above or below them.
Legend:
[1] = system: Candida albicans CaCi-2; assay: Primary assay: C. albicans CaCi-2 growth inhibition (Alamar Blue); type: cell-based; details: n = 3, 48 hours, tested up to 26 μM; for IC50: read-out: Growth Inhibition Activity, IC50 (μM), C. albicans (n = 3) CaCi-2
[2] = system: Candida albicans CaCi-17; assay: Primary assay: C. albicans CaCi-17 growth inhibition (Alamar Blue); type: cell-based; details: n = 3, 48 hours, tested up to 26 μM
[3] = system: NIH-3T3 mammalian fibroblasts; assay: Counterscreen mammalian cell toxicity assay (Alamar Blue); type: cell-based, murine; details: n = 1, 48 hours, tested up to 26 μM
Experimental: Quiescent murine fibroblasts were subjected to incubation with compounds of interest for 48 hours. Subsequent cell viability was determined via measuring Alamar Blue fluorescence.
Procedures • After overnight culture, pin compounds into wells at 100 nL/well using the CyBio CyBi-Well pinning instrument. • Return the plates to the tissue culture incubator and incubate the culture for an additional 48 hours at 37° C. under 5% CO2. • At the completion of this incubation, add Alamar Blue solution diluted 1:40 in PBS to each well (10 μL/well) to achieve a final dilution of 1:200. • Incubate the plates for an additional 2-3 hours at 37° C. under 5% CO2. • Read the Relative Fluorescence Intensity (RFU) of wells on a standard plate reader as a measure of relative cell growth. […] 4.4.

[4] = physchem; details: for solubility at 24 h: phosphate buffered saline with 1% DMSO, pH 7.4, aqueous buffer, kinetic from dmso stock
Experimental: Solubility was determined in phosphate buffered saline (PBS) pH 7.4 with 1% DMSO. Each compound was prepared in duplicate at 100 μM in both 100% DMSO and PBS with 1% DMSO. Compounds were allowed to equilibrate at room temperature with a 250 rpm orbital shake for 24 hours. After equilibration, samples were analyzed by UPLC-MS (Waters, Milford, Mass.) with compounds detected by SIR detection on a single quadrupole mass spectrometer. The DMSO samples were used to create a two-point calibration curve to which the response in PBS was fit.

[5] = read-out: Growth Inhibition Activity, IC50 (μM), 3T3 Fibroblasts (n = 1), Table 4
[6] = Table 4, PBS pH 7.4 with 1% DMSO, 24 hours, room temperature

IC50 ([1]; Table 4): 1.8 µM
Growth Inhibition Activity, IC50 (μM), C. albicans (n = 3) CaCi-17 ([2]; Table 4): inactive
PBS Solubility ([4]; pH 7.4): <1.0 µM
SMILES: CCOC(=O)N1C(=O)C2(CCCCC2)N(c2ccc(OC)cc2)C1=S [compound 56604819]
Growth Inhibition Activity, IC50 (μM), 3T3 Fibroblasts (n = 1) ([3]; Table 4): Inactive

Growth Inhibition Activity, IC50 (μM), C. albicans (n = 3) CaCi-2 ([1]; Table 7): inactive
Growth Inhibition Activity, IC50 (μM), C. albicans (n = 3) CaCi-17 ([2]; Table 7): inactive
solubility at 24 h [4]: 32 µM (≈ 7.24 µg/mL)
SMILES: CC(C)N1C(=S)NC(=O)C12CCCCC2 [compound 56604820]
Growth Inhibition Activity, IC50 (μM), 3T3 Fibroblasts (n = 1) ([3]; Table 7): Inactive

Growth Inhibition Activity, IC50 (μM), C. albicans (n = 3) CaCi-2 ([1]; Table 6): inactive
Growth Inhibition Activity, IC50 (μM), C. albicans (n = 3) CaCi-17 ([2]; Table 6): inactive
solubility at 24 h [4]: 55 µM (≈ 18.2 µg/mL)
SMILES: CCOC(=O)N1C(=O)N(c2ccc(C)cc2)C2(CCCCC2)C1=O [compound 56604827]
Growth Inhibition Activity, IC50 (μM), 3T3 Fibroblasts (n = 1) ([3]; Table 6): Inactive

Growth Inhibition Activity, IC50 (μM), C. albicans (n = 3) CaCi-2 ([1]; Table 7): inactive
Growth Inhibition Activity, IC50 (μM), C. albicans (n = 3) CaCi-17 ([2]; Table 7): inactive
solubility at 24 h [4]: > 100 µM
SMILES: CCOC(=O)N1C(=S)NC(=O)C12CCCCC2 [compound 56604829]
Growth Inhibition Activity, IC50 (μM), 3T3 Fibroblasts (n = 1) ([3]; Table 7): Inactive

Growth Inhibition Activity, IC50 (μM), C. albicans (n = 3) CaCi-2 ([1]; Table 4): inactive
Growth Inhibition Activity, IC50 (μM), C. albicans (n = 3) CaCi-17 ([2]; Table 4): inactive
PBS Solubility ([4]; pH 7.4): 61 µM
SMILES: CCOC(=O)N1C(=O)C2(CCCCC2)NC1=S [compound 56604830]
Growth Inhibition Activity, IC50 (μM), 3T3 Fibroblasts (n = 1) ([3]; Table 4): Inactive

Growth Inhibition Activity, IC50 (μM), C. albicans (n = 3) CaCi-2 ([1]; Table 3): inactive
Growth Inhibition Activity, IC50 (μM), C. albicans (n = 3) CaCi-17 ([2]; Table 3): inactive
PBS Solubility ([4]; pH 7.4): 6.6 µM
SMILES: Cc1ccc(N2C(=S)N(C)C(=O)C23CCCCC3)cc1 [compound 56604835]
Growth Inhibition Activity, IC50 (μM), 3T3 Fibroblasts (n = 1) ([3]; Table 3): Inactive

SMILES: CCOC(=O)N1C(=O)C2(CCCCC2)N(c2ccc(CC)cc2)C1=S [compound 56604836]
IC50 ([1]; Table 4): 1.9 µM
Growth Inhibition Activity, IC50 (μM), C. albicans (n = 3) CaCi-17 ([2]; Table 4): inactive
IC50 [3, 5]: 19.5 µM
PBS Solubility [4, 6]: <1.0 µM

SMILES: CCOC(=O)N1C(=O)C2(CCCCC2)N(c2ccc(C(C)(C)C)cc2)C1=S [compound 56604837]
Growth Inhibition Activity, IC50 (μM), C. albicans (n = 3) CaCi-2 ([1]; Table 4): inactive
Growth Inhibition Activity, IC50 (μM), C. albicans (n = 3) CaCi-17 ([2]; Table 4): inactive
IC50 [3, 5]: 16.5 µM
PBS Solubility [4, 6]: <1.0 µM

Growth Inhibition Activity, IC50 (μM), C. albicans (n = 3) CaCi-2 ([1]; Table 7): inactive
Growth Inhibition Activity, IC50 (μM), C. albicans (n = 3) CaCi-17 ([2]; Table 7): inactive
solubility at 24 h [4]: > 100 µM
SMILES: O=C1NC(=S)NC12CCCCC2 [compound 56604841]
Growth Inhibition Activity, IC50 (μM), 3T3 Fibroblasts (n = 1) ([3]; Table 7): Inactive

IC50 ([1]; Table 5): 9.8 µM
Growth Inhibition Activity, IC50 (μM), C. albicans (n = 3) CaCi-17 ([2]; Table 5): inactive
PBS Solubility ([4]; pH 7.4): 9.2 µM
SMILES: CCOC(=O)N1C(=O)C2(CCCC2)N(c2ccc(C)cc2)C1=S [compound 56604843]
Growth Inhibition Activity, IC50 (μM), 3T3 Fibroblasts (n = 1) ([3]; Table 5): Inactive

Growth Inhibition Activity, IC50 (μM), C. albicans (n = 3) CaCi-2 ([1]; Table 7): inactive
Growth Inhibition Activity, IC50 (μM), C. albicans (n = 3) CaCi-17 ([2]; Table 7): inactive
solubility at 24 h [4]: < 1 µM
SMILES: Cc1ccc(N2CC(=O)NC2=S)cc1 [compound 56604844]
IC50 ([3]; Mus musculus, NIH3T3, read-out: Growth Inhibition Activity, IC50 (μM), 3T3 Fibroblasts (n = 1), Table 7): 20.7 µM

Growth Inhibition Activity, IC50 (μM), C. albicans (n = 3) CaCi-2 ([1]; Table 6): inactive
Growth Inhibition Activity, IC50 (μM), C. albicans (n = 3) CaCi-17 ([2]; Table 6): inactive
solubility at 24 h [4]: 100 µM (≈ 27.2 µg/mL)
SMILES: Cc1ccc(N2C(=O)N(C)C(=O)C23CCCCC3)cc1 [compound 56604845]
Growth Inhibition Activity, IC50 (μM), 3T3 Fibroblasts (n = 1) ([3]; Table 6): Inactive

SMILES: CCCOC(=O)N1C(=O)C2(CCCCC2)N(c2ccc(C)cc2)C1=S [compound 56604849]
IC50 ([1]; Table 3): 1.2 µM
Growth Inhibition Activity, IC50 (μM), C. albicans (n = 3) CaCi-17 ([2]; Table 3): inactive
Growth Inhibition Activity, IC50 (μM), 3T3 Fibroblasts (n = 1) ([3]; Table 3): Inactive
PBS Solubility ([4]; Table 3, PBS pH 7.4 with 1% DMSO, 24 hours, room temperature): <1.0 µM

Growth Inhibition Activity, IC50 (μM), C. albicans (n = 3) CaCi-2 ([1]; Table 6): inactive
Growth Inhibition Activity, IC50 (μM), C. albicans (n = 3) CaCi-17 ([2]; Table 6): inactive
solubility at 24 h [4]: < 1 µM
SMILES: CCOC(=O)N1C(=S)N(c2ccc(C)cc2)C(=O)C12CCCCC2 [compound 56604852]
Growth Inhibition Activity, IC50 (μM), 3T3 Fibroblasts (n = 1) ([3]; Table 6): Inactive

SMILES: CCOC(=O)N1C(=O)C(C)(C)N(c2ccc(C)cc2)C1=S [compound 56604873]
Growth Inhibition Activity, IC50 (μM), C. albicans (n = 3) CaCi-2 ([1]; Table 5): inactive
Growth Inhibition Activity, IC50 (μM), C. albicans (n = 3) CaCi-17 ([2]; Table 5): inactive
Growth Inhibition Activity, IC50 (μM), 3T3 Fibroblasts (n = 1) ([3]; Table 5): Inactive

— patent US9944607B2, “Thiohydantoin derivatives and uses thereof” (Whitehead Institute for Biomedical Research, priority 2012, dated 2018)
